Measured values published in PubChem BioAssay AID463199 (Broad Institute, 2010).
Active and inactive are the calls of the source.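 Rule for the calls: active = AC50, the dose giving half-maximal effect, exceeds a fixed cutoff for a compound that rescues yeast growth under heat; inactive = the rest, inconclusive results apart.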

system: S. cerevisiae Burl-1 ts mutant growth, BacTiter-Glo, 38.5C 24 h; test: growth induction of Burl-1 ts yeast mutant, dose response, counter-screen for SUMOylation pathway inhibitor project, whole organism, S. cerevisiae, luminescence (AID 463199)

Row | SMILES | AC50
1 | COc1cc(SC)ccc1C(=O)N1CCCCCC1 | > 42 µM (inactive)
2 | CN1C(=O)C(=Cc2ccc(N3CCCCC3)o2)C(=O)N(C)C1=S | > 42 µM (inactive)
3 | CCC(Cc1ccccc1)NC(=O)C1CCN(c2nn3c(=O)cc(C)nc3s2)CC1 (stereo not given) | > 42 µM (inactive)
4 | COc1ccccc1N1CCN(CCN2C(=O)C3CCCCN3C2=O)CC1 (stereo not given) | > 42 µM (inactive)
5 | O=C(CN1CCc2ccccc21)NN1CC(=O)N(c2ccc(Cl)cc2)CC1=O | > 42 µM (inactive)
6 | COc1ccc(-n2c(SCC(=O)NCC3CCCO3)nc3c(c2=O)SCC3)cc1OC (stereo not given) | > 42 µM (inactive)
7 | COc1cc(C(=O)N/N=C/c2ccccn2)cc(OC)c1OC | > 42 µM (inactive)
8 | O=C1c2ccccc2NC(c2ccccc2O)N1O (stereo not given) | > 42 µM (inactive)
9 | CN1CCN(C(=O)CCN2C(=O)/C(=C/c3ccccc3Cl)SC2=S)CC1 | > 42 µM (inactive)
10 | O=c1c2c(ncn1Cc1ccccc1)nc1n2CCC1 | > 42 µM (inactive)
11 | COc1ccc(NC(=O)Cn2nnc(C(=O)Nc3ccc(F)c(Cl)c3)c2N)cc1 | > 42 µM (inactive)
12 | CN(C)c1oc(-c2ccccc2Cl)nc1S(=O)(=O)c1ccccc1 | > 42 µM (inactive)
13 | Cc1cc(-c2ccc(C(C)C)c(S(=O)(=O)N3CC(=O)Nc4ccccc43)c2)on1 | > 42 µM (inactive)
14 | CCOC(=O)N1CCN(c2cc3[nH]c(=S)[nH]c3cc2F)CC1 | > 42 µM (inactive)
15 | CCN(CC)C(=O)CSc1nnc(CNc2ccc(F)cc2)n1Cc1ccco1 | > 42 µM (inactive)
16 | Cn1c(CSc2nc3ccccc3s2)nnc1SCC(=O)NCCN1CCOCC1 | > 42 µM (inactive)
17 | Cc1ccc(CNC(=O)CCNS(=O)(=O)c2cccs2)cc1 | > 42 µM (inactive)
18 | CCc1nnc2n1N=C(c1ccc(Cl)cc1)CS2 | > 42 µM (inactive)
19 | Cc1c(NC(=O)c2cc(-c3ccccc3O)on2)c(=O)n(-c2ccccc2)n1C | > 42 µM (inactive)
20 | Cn1c(-c2sc3cc(C(F)(F)F)cnc3c2-c2cccs2)n[nH]c1=S | > 42 µM (inactive)
21 | CCCCN(C/C=C/c1ccccc1OC)Cc1ccccc1 | > 42 µM (inactive)
22 | COc1ccccc1C1NC(=O)CS1 (stereo not given) | > 42 µM (inactive)
23 | N/C(=N\OC(=O)CCC1CCCC1)c1ccc([N+](=O)[O-])cc1 | > 42 µM (inactive)
24 | CCCC1Cc2c(sc3ncnc(N)c23)CO1 (stereo not given) | 9.15 µM
25 | CCc1noc(C)c1C(=O)Nc1nc(-c2ccc(F)cc2)c(C)s1 | > 42 µM (inactive)

Row | SMILES | AC50
26 | COCCN(C(=O)CSc1nnc(-c2ccc(C)cc2)n1N)c1c(N)n(Cc2ccccc2)c(=O)[nH]c1=O | > 42 µM (inactive)
27 | CCc1ccc(S(=O)(=O)NCc2cccnc2)cc1 | > 42 µM (inactive)
28 | Cc1nc2sc(C(c3ccccc3)N3CCC(O)CC3)c(O)n2n1 (stereo not given) | > 42 µM (inactive)
29 | CC/C(=N\NC(=O)c1nnn(-c2nonc2N)c1-c1cccs1)c1ccccc1 | > 42 µM (inactive)
30 | CC(=Nc1ccccc1)C1=C(O)CC(C)(C)CC1=O | > 42 µM (inactive)
31 | CC1CCN(C(=O)c2[nH]cnc2C(=O)NCC(=O)OCc2ccccc2)CC1 | > 42 µM (inactive)
32 | COc1ccccc1CNC(=O)CN(c1ccc(C)cc1)S(=O)(=O)c1c(C)n[nH]c1C | > 42 µM (inactive)
33 | COc1ccc(/C=C/C(=O)NC(=S)Nc2ccccn2)cc1 | > 42 µM (inactive)
34 | Cc1cc(C)c(NC(=O)Cn2c([N+](=O)[O-])cnc2C)c(C)c1 | > 42 µM (inactive)
35 | CC1(C)CCc2cc(CN3CCN(c4ccccn4)CC3)ccc2O1 | > 42 µM (inactive)
36 | COc1ccc(CNS(=O)(=O)c2ccc3c(c2)CCN3C(=O)C2CCC2)cc1 | > 42 µM (inactive)
37 | COc1ccc(CCC(=O)NNC(=S)Nc2cccc(C(C)=O)c2)cc1 | > 42 µM (inactive)
38 | O=c1c2c3c(sc2n2cnnc2n1-c1ccccc1)N(Cc1ccccc1)CCC3 | > 42 µM (inactive)
39 | Cc1cccc(OCc2nnc(SCC(=O)N3c4ccccc4CC3C)n2C)c1C (stereo not given) | > 42 µM (inactive)
40 | O=C(CN1C(=O)NC2(CCCC2)C1=O)Nc1nc2ccccc2[nH]1 | > 42 µM (inactive)
41 | O=C(CCC(=O)OCC(=O)c1ccc(Br)cc1)Nc1cccc2cccnc12 | > 42 µM (inactive)
42 | CCCn1c(SC(C)C(=O)NCC2CCCO2)nc2sc(CC)cc2c1=O (stereo not given) | > 42 µM (inactive)
43 | CC(C)c1onc(C(=O)N(C)Cc2ccccc2)c1[N+](=O)[O-] | > 42 µM (inactive)
44 | O=C(CCc1ccccc1)NNC(=S)Nc1ccc(F)cc1 | > 42 µM (inactive)
45 | CN(c1ccccc1)S(=O)(=O)c1ccc(C(=O)NCC2CCCO2)cc1 (stereo not given) | > 21 µM (inactive)
46 | CCc1nnc(NC(=O)CSc2ccc(-c3ccc(-n4cccn4)cc3)nn2)s1 | > 42 µM (inactive)
47 | COc1cccc(Cn2cnc3c(NS(=O)(=O)c4cccc(Cl)c4Cl)c(C)c(C)cc32)c1 | > 42 µM (inactive)
48 | CCN(C(=S)NCCOC)c1cccc2ccccc12 | > 42 µM (inactive)
49 | COc1ccccc1N1CCN(C(=O)c2sc3ncnc(N4CCN(c5ccccn5)CC4)c3c2C)CC1 | > 42 µM (inactive)
50 | CCOC(=O)C1=C(C)NC(C)=C(C(=O)OCC)C1C(=O)OC1CCOC1=O (stereo not given) | > 42 µM (inactive)

Row | SMILES | AC50
51 | CC(=O)Nc1cc2nn(-c3ccccc3)nc2cc1Cl | > 42 µM (inactive)
52 | N#Cc1cc([N+](=O)[O-])cnc1NCC(O)CO (stereo not given) | > 42 µM (inactive)
53 | c1ccc(-c2nc(N3CCOCC3)c3ccccc3n2)nc1 | > 42 µM (inactive)
54 | CCOC(=O)c1c(C)[nH]c2c1cc(O)c1ccccc12 | > 42 µM (inactive)
55 | COc1ccc(-c2noc(CSc3nc(-c4ccccc4)cc(=O)[nH]3)n2)cc1OC | > 42 µM (inactive)
56 | CCN(Cc1ccccc1)Cc1ccc(OCc2ccccc2)c(OC)c1 | > 42 µM (inactive)
57 | CC(C)(C)C1c2[nH]c3ccccc3c2CCN1Cc1cccc(OCCO)c1 (stereo not given) | > 42 µM (inactive)
58 | Cc1nn(C(C)(C)C)c(OC(=O)c2ccc3c(c2)OCO3)c1S(=O)(=O)c1ccccc1 | > 42 µM (inactive)
59 | COCCn1c(=O)[nH]c(=O)c2cc(C(=O)c3cc(Cl)ccc3O)cnc21 | > 42 µM (inactive)
60 | CCCNc1nc2ccccc2c(=O)[nH]1 | > 42 µM (inactive)
61 | CCN(C(=O)CCS(=O)(=O)c1ccc2c(c1)oc(=O)n2C)c1ccc(OC)cc1 | > 42 µM (inactive)
62 | O=C(O)CCc1ccc(-c2ccccc2)n1NC(=O)c1cccs1 | > 42 µM (inactive)
63 | COCC(C)n1c(SCC(=O)NNC(=O)c2ccccc2)nc2ccccc2c1=O (stereo not given) | > 42 µM (inactive)
64 | CS(=O)(=O)N(CC(=O)Nc1ccccc1C(=O)N1CCCC1)c1ccc2c(c1)OCO2 | > 42 µM (inactive)
65 | O=C(O)c1cc(S(=O)(=O)Nc2ccc(OCc3ccccc3)cc2)ccc1Br | > 42 µM (inactive)
66 | Cc1ccc2nc3c(cc(C(=O)NCCN4CCOCC4)c(=N)n3CCCN3CCOCC3)c(=O)n2c1 | > 42 µM (inactive)
67 | O=C(c1ccc(COc2ccccc2Cl)o1)N1N=C(C(F)F)CC1(O)C(F)F (stereo not given) | > 42 µM (inactive)
68 | O=C(Nc1ccc(Cl)cc1)C1=Cc2ccccc2OC1 | > 42 µM (inactive)
69 | COC(=O)c1ccc(/C=N/NC(=O)C(=O)NCC2CCCO2)cc1 (stereo not given) | > 42 µM (inactive)
70 | Cc1ccc(SCCC(=O)Nc2ccc(OCc3ccccc3)cc2)cc1 | > 42 µM (inactive)
71 | CC(=O)Oc1cccc(N2C(=O)c3ccc(C(=O)Nc4c[nH]c(=O)[nH]c4=O)cc3C2=O)c1 | > 42 µM (inactive)
72 | Cc1cc2c(cc1C)-c1nnc(-c3ccc4ccccc4n3)n1C(C)(C)C2 | > 42 µM (inactive)
73 | Cc1ccccc1CSc1n[nH]c(NS(=O)(=O)c2ccccc2)n1 | > 21 µM (inactive)
74 | COc1ccccc1/C=C/C(=O)c1c2c(c(C)[nH]c1=O)CCCC2 | > 42 µM (inactive)
75 | CC(C)C(NC(=S)Nc1ccccc1)C(=O)O (stereo not given) | > 42 µM (inactive)

Row | SMILES | AC50
76 | COc1ccc(CCNC(=O)CC2C(=O)NCCN2CC(C)(C)C)cc1 (stereo not given) | > 42 µM (inactive)
77 | S=C(NCCc1ccccc1)Nc1ccccc1Cl | > 42 µM (inactive)
78 | CC(=O)/C=C/n1c(=S)oc2ccccc21 | > 42 µM (inactive)
79 | CCN1CSC(=S)N(Cc2ccc(OC)cc2)C1 | 7.78 µM
80 | COc1ccc(S(=O)(=O)NCC(=O)N(CC(=O)NCC2CCCO2)c2ccccc2C)cc1 (stereo not given) | > 42 µM (inactive)
81 | CCOC(=O)c1[nH]c2ccc(F)cc2c1NC(=O)CCN1CCOCC1 | > 42 µM (inactive)
82 | CN(C#N)c1nc(Cl)nc(Nc2cccc(Cl)c2)n1 | > 42 µM (inactive)
83 | Oc1c(Br)cc(Br)cc1C=Nc1ccc2[nH]ncc2c1 | > 42 µM (inactive)
84 | CC(C)(C)c1ccc(C(=O)NCCC(=O)N2CCN(c3ncccn3)CC2)cc1 | > 42 µM (inactive)
85 | Oc1c(Br)cc(Br)cc1/C=N/n1c(-c2ccccc2)n[nH]c1=S | > 42 µM (inactive)
86 | N#CCN(N=Nc1ccccc1)c1ccccc1 | > 42 µM (inactive)
87 | O=C(CCCc1nc(-c2ccc(Cl)cc2)no1)NC1CCCCC1 | > 42 µM (inactive)
88 | CC(=O)CSc1ncnc2sc3c(c12)CCCC3 | > 42 µM (inactive)
89 | O=C(CSc1ncn[nH]1)Nc1cccc(S(=O)(=O)N2CCCCCC2)c1 | > 42 µM (inactive)
90 | COc1cccc(OC)c1OCC(O)CN1CCN(c2ccccc2)CC1 (stereo not given) | > 42 µM (inactive)
91 | OC(COc1ccccc1)Cn1c2ccccc2c2ccccc21 (stereo not given) | > 42 µM (inactive)
92 | Cc1cc(C)cc(NC(=O)CS(=O)(=O)c2ccccc2)c1 | > 42 µM (inactive)
93 | COc1ccc(S(=O)(=O)Cc2ccc(C(=O)NCc3cccs3)o2)cc1 | > 42 µM (inactive)
94 | Cc1cc(C)c2cc(C)c3nnc(SCC(=O)NCc4ccc5c(c4)OCO5)n3c2c1 | > 42 µM (inactive)
95 | CCOC(=O)N1CCN(c2nnnn2-c2ccccc2)CC1 | > 42 µM (inactive)
96 | COc1cc(CNCCN2CCOCC2)ccc1OCc1ccccc1Cl | > 42 µM (inactive)
97 | COC(=O)c1cccc(NC(=O)c2cccnc2)c1 | > 42 µM (inactive)
98 | CCN(CC)c1ccc(Nc2cc3n(c(=O)n2)CCc2cc(OC)c(OC)cc2-3)cc1 | > 42 µM (inactive)
99 | CN(c1ccccc1)c1ccc(/C=C/[N+](=O)[O-])cc1 | > 42 µM (inactive)
100 | C=CCSC1=C(C#N)C(c2ccc(C(C)C)cc2)CC(=O)N1 (stereo not given) | > 42 µM (inactive)
